Laboratory results as given in ChEMBL document CHEMBL1201862, “PubChem BioAssay data set” (2004).
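Interpolation was linear, between the two tested concentrations surrounding the appropriate level; five concentrations were tested over 48 hours in 96-well plates. At the GI50, growth is halved.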 Calls of active or inactive are those of the source. Rule as the data show it: active = GI50 up to about 1.1 µM and inactive = higher.

Experiments:
Assay in all cases: NCI anticancer screen, dose series, 48 h
786-0 = tested on: 786-0
A498 = tested on: A498
A549 = tested on: A549
COLO 205 = tested on: COLO 205
HL-60 = tested on: HL-60
HOP-92 = tested on: HOP-92
HT-29 = tested on: HT-29
Hs-578T = tested on: Hs-578T
IGROV-1 = tested on: IGROV-1
K562 = tested on: K562
M14 = tested on: M14
MDA-N = tested on: MDA-N
OVCAR-5 = tested on: OVCAR-5
RPMI-8226 = tested on: RPMI-8226
RXF 393 = tested on: RXF 393
SF-268 = tested on: SF-268
SF-295 = tested on: SF-295
SK-OV-3 = tested on: SK-OV-3
LOX IMVI = tested on: LOX IMVI
UACC-257 = tested on: UACC-257

Measured: GI50

CC(C)(C)c1cc[n+](C[n+]2ccc(C(C)(C)C)cc2)cc1
inactive: 786-0 > 100 µM | A498 53.6 µM | A549 > 100 µM | COLO 205 > 100 µM | HL-60 > 100 µM | HOP-92 > 100 µM | HT-29 > 100 µM | Hs-578T > 100 µM | IGROV-1 > 100 µM | K562 > 100 µM | M14 > 100 µM | MDA-N > 100 µM | OVCAR-5 > 100 µM | RPMI-8226 > 100 µM | RXF 393 > 100 µM | SF-268 > 100 µM | SF-295 > 100 µM | SK-OV-3 > 100 µM

O=C(/C=C/c1cc(O)c(O)cc1O)OCCc1ccccc1
inactive: 786-0 5.05 µM | A498 21.2 µM | A549 > 67.8 µM | COLO 205 11.2 µM | HL-60 1.3 µM | HOP-92 7.6 µM | HT-29 18.4 µM | Hs-578T 39.5 µM | IGROV-1 23.1 µM | K562 2.28 µM | LOX IMVI 12.9 µM | M14 14.9 µM | MDA-N 13.2 µM | OVCAR-5 > 41.9 µM | RPMI-8226 3.56 µM | SF-268 19 µM | SF-295 29.4 µM | SK-OV-3 26.8 µM | UACC-257 34.8 µM

COc1cc(COC(=O)N[C@H](C(=O)O)C(C)(C)C)c([N+](=O)[O-])cc1OC
inactive: 786-0 > 100 µM | A498 > 100 µM | A549 > 100 µM | COLO 205 > 100 µM | HL-60 > 10 µM | HOP-92 > 100 µM | HT-29 > 100 µM | Hs-578T > 100 µM | IGROV-1 > 100 µM | K562 > 100 µM | M14 > 100 µM | MDA-N > 100 µM | OVCAR-5 > 100 µM | RPMI-8226 > 100 µM | RXF 393 > 100 µM | SF-268 > 100 µM | SF-295 > 100 µM | SK-OV-3 > 100 µM | UACC-257 > 100 µM

Cc1ccc(S(=O)(=O)N/N=C2/C(=O)Nc3c(Cl)cc(Cl)cc32)cc1
inactive: 786-0 > 100 µM | A498 55.5 µM | A549 67.5 µM | COLO 205 68.7 µM | HL-60 36.9 µM | HOP-92 > 100 µM | HT-29 39.1 µM | Hs-578T 76.6 µM | IGROV-1 32.2 µM | K562 72.1 µM | LOX IMVI 37.8 µM | M14 73.5 µM | MDA-N 68.9 µM | OVCAR-5 > 100 µM | RXF 393 43.3 µM | SF-295 35.8 µM | SK-OV-3 > 100 µM | UACC-257 > 100 µM

C(=N\Nc1nnc(-c2nnc(N/N=C/c3ccccc3)o2)o1)/c1ccccc1
inactive: 786-0 > 10 µM | A498 > 10 µM | A549 > 10 µM | COLO 205 > 10 µM | HL-60 > 10 µM | HOP-92 > 10 µM | HT-29 > 10 µM | Hs-578T 6.19 µM | IGROV-1 > 10 µM | K562 > 10 µM | M14 > 10 µM | MDA-N > 10 µM | OVCAR-5 > 10 µM | RPMI-8226 > 10 µM | RXF 393 > 10 µM | SF-268 > 10 µM | SF-295 > 10 µM | UACC-257 > 10 µM

COc1cc2c(cc1OC)C1C(O)C(OC)C=C3CC[N+](C)(C2)C31 (stereo not drawn)
inactive: 786-0 > 100 µM | A498 > 100 µM | A549 > 100 µM | COLO 205 > 100 µM | HL-60 > 100 µM | HOP-92 > 100 µM | HT-29 > 100 µM | Hs-578T > 100 µM | IGROV-1 > 100 µM | M14 > 100 µM | MDA-N > 100 µM | OVCAR-5 > 100 µM | RPMI-8226 > 100 µM | RXF 393 > 100 µM | SF-268 > 100 µM | SF-295 > 100 µM | SK-OV-3 > 100 µM | UACC-257 > 100 µM

CC(=O)N/N=C1\NC(=O)C[C@H]2[C@@H]3CC=C4C[C@@H](OC(C)=O)CC[C@]4(C)[C@H]3CC[C@]12C
inactive: 786-0 16 µM | A498 18.7 µM | A549 34.2 µM | COLO 205 45.3 µM | HL-60 > 100 µM | HOP-92 15.9 µM | HT-29 31.4 µM | Hs-578T 17.8 µM | IGROV-1 31 µM | K562 > 100 µM | LOX IMVI 35.4 µM | M14 30.8 µM | MDA-N 7.16 µM | OVCAR-5 > 100 µM | RPMI-8226 24.3 µM | SF-268 27.7 µM | SF-295 14.1 µM | SK-OV-3 21.1 µM | UACC-257 18.7 µM

Cc1nnc2n1N=C(c1ccccc1)/C(=C/c1ccc(-c3ccc(Cl)cc3)o1)S2
inactive: 786-0 13.1 µM | A498 17.3 µM | A549 18 µM | COLO 205 25.2 µM | HL-60 4.36 µM | HOP-92 17.5 µM | HT-29 16.5 µM | Hs-578T 54.3 µM | IGROV-1 18.9 µM | K562 7.85 µM | M14 17.9 µM | MDA-N 11.6 µM | OVCAR-5 20.6 µM | RPMI-8226 5.11 µM | RXF 393 10.8 µM | SF-268 14.3 µM | SF-295 15.9 µM | SK-OV-3 32.1 µM | UACC-257 16.6 µM

CC1=C(/C=C/Cl)CC(Cl)C(C)(Cl)C1 (stereo not drawn)
inactive: 786-0 > 100 µM | A498 > 100 µM | A549 > 100 µM | COLO 205 > 100 µM | HL-60 20.4 µM | HOP-92 53 µM | HT-29 55.8 µM | Hs-578T > 100 µM | IGROV-1 > 100 µM | K562 > 100 µM | LOX IMVI > 100 µM | M14 > 100 µM | MDA-N > 100 µM | OVCAR-5 > 100 µM | RXF 393 10.6 µM | SF-268 > 100 µM | SF-295 > 100 µM | SK-OV-3 > 100 µM | UACC-257 > 100 µM

O=C(O)CN1CCN2CCCCCCCCN(CC1)CCN(CC(=O)O)CC2
inactive: 786-0 > 100 µM | A498 > 100 µM | A549 > 100 µM | COLO 205 > 100 µM | HL-60 5.08 µM | HOP-92 > 100 µM | HT-29 43.5 µM | Hs-578T > 100 µM | IGROV-1 > 100 µM | K562 > 100 µM | LOX IMVI > 100 µM | M14 > 100 µM | MDA-N > 100 µM | OVCAR-5 > 100 µM | RPMI-8226 > 100 µM | SF-295 > 100 µM | SK-OV-3 > 100 µM | UACC-257 > 100 µM

Cc1ccc(-[n+]2cc([O-])on2)cc1
inactive: 786-0 > 100 µM | A498 65.8 µM | A549 > 100 µM | HL-60 > 100 µM | HOP-92 64 µM | HT-29 > 100 µM | Hs-578T > 100 µM | IGROV-1 > 100 µM | K562 > 100 µM | LOX IMVI > 100 µM | M14 > 100 µM | MDA-N > 100 µM | OVCAR-5 > 100 µM | RPMI-8226 > 100 µM | RXF 393 > 100 µM | SF-268 > 100 µM | SF-295 > 100 µM | UACC-257 > 100 µM
